Assay results as given in the NIST ThermoML archive (doi:10.1016/j.jct.2008.10.008).
Where “and” joins values, the source holds several entries; their conditions need not be identical. Equal values may be shown once.

Legend:
[1] = Molar enthalpy of transition or fusion
[2] = for vapor or sublimation pressure: Inclined piston gauge
[3] = molar heat capacity at saturation pressure

CC(C)(C)c1ccc(C(C)(C)C)cc1 [1,4-bis(1,1-dimethylethyl)benzene]
Conditions	Molar enthalpy of transition or fusion, [1] [kcal/mol]	Triple point temperature, [2] [K]
Crystal 1	1.9627	–
Crystal 2	3.4321	350.73

Conditions	Triple point temperature [K]	molar heat capacity	vapor or sublimation pressure [kPa]
[2], 319.99 K, Crystal 2	–	–	0.0214
[2], 329.99 K, Crystal 2	–	–	0.0543
[2], 339.98 K, Crystal 2	–	–	0.1315
[2], 349.98 K, Crystal 2	–	–	0.2996
[2], 354.98 K, Liquid	–	–	0.4031
[2], 359.98 K, Liquid	–	–	0.5294
[2], 369.98 K, Liquid	–	–	0.8897
[2], 379.97 K, Liquid	–	–	1.445
[2], 387.02 K, Liquid	–	–	1.996
[2], 389.97 K, Liquid	–	–	2.276
[2], 394.97 K, Liquid	–	–	2.825
[2], Crystal, Adiabatic calorimetry	350.78	–	–
[3], 5 K, Crystal 2	–	0.22 J/K/mol	–
[3], 5.533 K, Crystal 2	–	0.3 J/K/mol	–
[3], 6.588 K, Crystal 2	–	0.58 J/K/mol	–
[3], 7.503 K, Crystal 2	–	0.948 J/K/mol	–
[3], 8.461 K, Crystal 2	–	1.45 J/K/mol	–
[3], 9.448 K, Crystal 2	–	2.15 J/K/mol	–
[3], 10 K, Crystal 2	–	2.66 J/K/mol	–
[3], 10.47 K, Crystal 2	–	3.13 J/K/mol	–
[3], 11.6 K, Crystal 2	–	4.28 J/K/mol	–
[3], 12.86 K, Crystal 2	–	5.92 J/K/mol	–
[3], 14.25 K, Crystal 2	–	7.97 J/K/mol	–
[3], 15.79 K, Crystal 2	–	10.43 J/K/mol	–
[3], 17.5 K, Crystal 2	–	13.43 J/K/mol	–
[3], 19.42 K, Crystal 2	–	16.89 J/K/mol	–
[3], 20 K, Crystal 2	–	17.93 J/K/mol	–
[3], 21.58 K, Crystal 2	–	20.82 J/K/mol	–
[3], 24 K, Crystal 2	–	25.18 J/K/mol	–
[3], 26.71 K, Crystal 2	–	29.9 J/K/mol	–
[3], 29.7 K, Crystal 2	–	34.78 J/K/mol	–
[3], 30 K, Crystal 2	–	35.25 J/K/mol	–
[3], 33.02 K, Crystal 2	–	39.81 J/K/mol	–
[3], 36.72 K, Crystal 2	–	44.96 J/K/mol	–
[3], 40 K, Crystal 2	–	49.12 J/K/mol	–
[3], 40.81 K, Crystal 2	–	50.11 J/K/mol	–
[3], 45.31 K, Crystal 2	–	55.45 J/K/mol	–
[3], 50 K, Crystal 2	–	60.83 J/K/mol	–
[3], 50.28 K, Crystal 2	–	61.18 J/K/mol	–
[3], 53.35 K, Crystal 2	–	64.41 J/K/mol	–
[3], 55.8 K, Crystal 2	–	67 J/K/mol	–
[3], 58.24 K, Crystal 2	–	69.81 J/K/mol	–
[3], 60 K, Crystal 2	–	71.59 J/K/mol	–
[3], 63.85 K, Crystal 2	–	75.62 J/K/mol	–
[3], 70 K, Crystal 2	–	82.39 J/K/mol	–
[3], 70.16 K, Crystal 2	–	82.56 J/K/mol	–
[3], 77.05 K, Crystal 2	–	90.04 J/K/mol	–
[3], 80 K, Crystal 2	–	93.26 J/K/mol	–
[3], 84.6 K, Crystal 2	–	98.29 J/K/mol	–
[3], 87.33 K, Crystal 2	–	101.34 J/K/mol	–
[3], 90 K, Crystal 2	–	104.26 J/K/mol	–
[3], 92.81 K, Crystal 2	–	107.36 J/K/mol	–
[3], 95.36 K, Crystal 2	–	110.2 J/K/mol	–
[3], 100 K, Crystal 2	–	115.33 J/K/mol	–
[3], 101.84 K, Crystal 2	–	117.33 J/K/mol	–
[3], 104.42 K, Crystal 2	–	120.11 J/K/mol	–
[3], 113.87 K, Crystal 2	–	130.45 J/K/mol	–
[3], 120 K, Crystal 2	–	137.01 J/K/mol	–
[3], 124.55 K, Crystal 2	–	141.81 J/K/mol	–
[3], 136.29 K, Crystal 2	–	154.01 J/K/mol	–
[3], 140 K, Crystal 2	–	157.79 J/K/mol	–
[3], 148.14 K, Crystal 2	–	166.03 J/K/mol	–
[3], 160 K, Crystal 2	–	177.95 J/K/mol	–
[3], 160.18 K, Crystal 2	–	178.15 J/K/mol	–
[3], 172.27 K, Crystal 2	–	190.18 J/K/mol	–
[3], 180 K, Crystal 2	–	197.9 J/K/mol	–
[3], 184.35 K, Crystal 2	–	202.24 J/K/mol	–
[3], 196.47 K, Crystal 2	–	214.21 J/K/mol	–
[3], 200 K, Crystal 2	–	217.74 J/K/mol	–
[3], 208.62 K, Crystal 2	–	226.43 J/K/mol	–
[3], 220 K, Crystal 2	–	238.04 J/K/mol	–
[3], 220.76 K, Crystal 2	–	238.82 J/K/mol	–
[3], 232.87 K, Crystal 2	–	251.39 J/K/mol	–
[3], 240 K, Crystal 2	–	258.93 J/K/mol	–
[3], 246.43 K, Crystal 2	–	265.79 J/K/mol	–
[3], 260 K, Crystal 2	–	280.44 J/K/mol	–
[3], 261.46 K, Crystal 2	–	282.02 J/K/mol	–
[3], 276.43 K, Crystal 2	–	298.62 J/K/mol	–
[3], 280 K, Crystal 2	–	302.57 J/K/mol	–
[3], 284.66 K, Crystal 2	–	307.57 J/K/mol	–
[3], 291.28 K, Crystal 2	–	315.23 J/K/mol	–
[3], 293.84 K, Crystal 2	–	318.28 J/K/mol	–
[3], 298.15 K, Crystal 2	–	323.15 J/K/mol	–
[3], 298.15 K, Liquid	–	347.84 J/K/mol	–
[3], 300 K, Crystal 2	–	325.26 J/K/mol	–
[3], 300 K, Liquid	–	349.41 J/K/mol	–
[3], 302.67 K, Crystal 2	–	328.3 J/K/mol	–
[3], 304.12 K, Crystal 2	–	330 J/K/mol	–
[3], 305.99 K, Crystal 2	–	332.26 J/K/mol	–
[3], 310 K, Liquid	–	357.8 J/K/mol	–
[3], 315.02 K, Crystal 2	–	342.89 J/K/mol	–
[3], 320 K, Crystal 2	–	348.63 J/K/mol	–
[3], 320 K, Liquid	–	366 J/K/mol	–
[3], 327.23 K, Crystal 2	–	357.27 J/K/mol	–
[3], 330 K, Liquid	–	374.03 J/K/mol	–
[3], 339.27 K, Crystal 2	–	372.29 J/K/mol	–
[3], 340 K, Crystal 2	–	373.15 J/K/mol	–
[3], 340 K, Liquid	–	381.92 J/K/mol	–
[3], 340.54 K, Crystal 2	–	373.89 J/K/mol	–
[3], 350 K, Liquid	–	389.72 J/K/mol	–
[3], 350.73 K, Crystal 1	–	375.72 J/K/mol	–
[3], 350.73 K, Crystal 2	–	386.83 J/K/mol	–
[3], 350.78 K, Crystal 1	–	375.79 J/K/mol	–
[3], 350.78 K, Liquid	–	390.31 J/K/mol	–
[3], 354.93 K, Liquid	–	393.57 J/K/mol	–
[3], 356.83 K, Liquid	–	395.01 J/K/mol	–
[3], 358.46 K, Liquid	–	396.37 J/K/mol	–
[3], 358.5 K, Liquid	–	396.23 J/K/mol and 396.2 J/K/mol	–
[3], 360 K, Liquid	–	397.37 J/K/mol	–
[3], 363.7 K, Liquid	–	400.3 J/K/mol	–
[3], 366.52 K, Liquid	–	402.21 J/K/mol	–
[3], 374.01 K, Liquid	–	407.95 J/K/mol	–
[3], 380 K, Liquid	–	412.36 J/K/mol	–
[3], 380.16 K, Liquid	–	412.53 J/K/mol	–
[3], 395.48 K, Liquid	–	423.8 J/K/mol	–
[3], 398.2 K, Liquid	–	425.82 J/K/mol	–
[3], 400 K, Liquid	–	427.09 J/K/mol	–
[3], 416.83 K, Liquid	–	439.37 J/K/mol	–
[3], 417.39 K, Liquid	–	439.74 J/K/mol	–
[3], 420 K, Liquid	–	441.61 J/K/mol	–
[3], 433.85 K, Liquid	–	451.62 J/K/mol	–
[3], 435.24 K, Liquid	–	452.59 J/K/mol	–
[3], 440 K, Liquid	–	456.08 J/K/mol	–

CC(C)(C)c1ccccc1 [(1,1-dimethylethyl)benzene]
Conditions	Molar enthalpy of transition or fusion [kcal/mol]
[1], Crystal	2.0062

Conditions	Triple point temperature [K]	molar heat capacity [J/K/mol]
[2], Crystal, Adiabatic calorimetry	215.31	–
[3], 5 K, Crystal	–	0.72
[3], 5.009 K, Crystal	–	0.72
[3], 5.752 K, Crystal	–	1.09
[3], 6.678 K, Crystal	–	1.68
[3], 7.653 K, Crystal	–	2.44
[3], 8.667 K, Crystal	–	3.35
[3], 9.709 K, Crystal	–	4.46
[3], 10 K, Crystal	–	4.79
[3], 10.84 K, Crystal	–	5.76
[3], 12.09 K, Crystal	–	7.28
[3], 13.47 K, Crystal	–	9.104
[3], 14.96 K, Crystal	–	11.15
[3], 16.6 K, Crystal	–	13.48
[3], 18.41 K, Crystal	–	16.04
[3], 20 K, Crystal	–	18.27
[3], 20.41 K, Crystal	–	18.84
[3], 22.63 K, Crystal	–	21.93
[3], 25.1 K, Crystal	–	25.19
[3], 27.86 K, Crystal	–	28.67
[3], 30 K, Crystal	–	31.19
[3], 30.93 K, Crystal	–	32.24
[3], 34.35 K, Crystal	–	35.9
[3], 38.17 K, Crystal	–	39.64
[3], 40 K, Crystal	–	41.3
[3], 42.44 K, Crystal	–	43.41
[3], 47.2 K, Crystal	–	47.28
[3], 50 K, Crystal	–	49.43
[3], 52.43 K, Crystal	–	51.23
[3], 53.45 K, Crystal	–	51.95
[3], 58.21 K, Crystal	–	55.36
[3], 58.43 K, Crystal	–	55.52
[3], 60 K, Crystal	–	56.6
[3], 64.04 K, Crystal	–	59.39
[3], 70 K, Crystal	–	63.57
[3], 70.32 K, Crystal	–	63.81
[3], 77.32 K, Crystal	–	68.59
[3], 80 K, Crystal	–	70.45
[3], 84.98 K, Crystal	–	73.93
[3], 87.08 K, Crystal	–	75.43
[3], 90 K, Crystal	–	77.44
[3], 93.34 K, Crystal	–	79.79
[3], 93.37 K, Crystal	–	79.85
[3], 100 K, Crystal	–	84.51
[3], 101.27 K, Crystal	–	85.43
[3], 102.4 K, Crystal	–	86.21
[3], 110.41 K, Crystal	–	91.89
[3], 111.86 K, Crystal	–	92.92
[3], 120 K, Crystal	–	98.68
[3], 120.01 K, Crystal	–	98.72
[3], 129.8 K, Crystal	–	105.69
[3], 139.62 K, Crystal	–	112.79
[3], 140 K, Crystal	–	113.02
[3], 149.52 K, Crystal	–	119.99
[3], 160 K, Crystal	–	127.65
[3], 160.53 K, Crystal	–	128.13
[3], 162.39 K, Crystal	–	129.37
[3], 172.82 K, Crystal	–	137.16
[3], 173.48 K, Crystal	–	137.69
[3], 180 K, Crystal	–	142.42
[3], 185.83 K, Crystal	–	147.07
[3], 186.21 K, Crystal	–	147.43
[3], 197.14 K, Crystal	–	156.12
[3], 200 K, Crystal	–	157.51
[3], 203.2 K, Crystal	–	162.61
[3], 206.78 K, Crystal	–	167.05
[3], 215.31 K, Crystal	–	169.1
[3], 215.31 K, Liquid	–	208.01
[3], 220 K, Liquid	–	209.58
[3], 223.09 K, Liquid	–	210.65
[3], 223.25 K, Liquid	–	210.68
[3], 232.46 K, Liquid	–	213.79
[3], 232.58 K, Liquid	–	213.79
[3], 240 K, Liquid	–	216.6
[3], 240.86 K, Liquid	–	216.97
[3], 253.04 K, Liquid	–	221.76
[3], 260 K, Liquid	–	224.65
[3], 265.37 K, Liquid	–	226.92
[3], 277.79 K, Liquid	–	232.27
[3], 280 K, Liquid	–	233.26
[3], 291.32 K, Liquid	–	238.42
[3], 294.64 K, Liquid	–	239.95
[3], 298.15 K, Liquid	–	241.59
[3], 300 K, Liquid	–	242.45
[3], 305.81 K, Liquid	–	245.17
[3], 311.47 K, Liquid	–	247.82
[3], 320 K, Liquid	–	251.92
[3], 329.17 K, Liquid	–	256.4
[3], 330 K, Liquid	–	256.8
[3], 340 K, Liquid	–	261.71
[3], 347.61 K, Liquid	–	265.47
[3], 360 K, Liquid	–	271.66
[3], 365.98 K, Liquid	–	274.65
[3], 380 K, Liquid	–	281.68
[3], 384.21 K, Liquid	–	283.78
[3], 400 K, Liquid	–	291.7
[3], 402.17 K, Liquid	–	292.78
[3], 419.78 K, Liquid	–	301.62
[3], 420 K, Liquid	–	301.72
[3], 435.18 K, Liquid	–	309.12
[3], 440 K, Liquid	–	311.52
